In article PMC5218480 (PLoS ONE, 2017):

System: MV-4-11 cells
Test: Gene expression microarray analysis (Affymetrix PrimeView) and GSEA
Assay type: cell-based, human
Set-up: RFU PODN (11730768_x_at) / Fold change /veh PODN (11730768_x_at) / RFU LINC00158 (11744669_a_at) / Fold change /veh LINC00158 (11744669_a_at) / RFU DUSP10 (11751237_a_at) / Fold change /veh DUSP10 (11751237_a_at) / RFU ID3 (11757404_x_at) / Fold change /veh ID3 (11757404_x_at) / RFU PLEKHG5 (11737974_s_at) / Fold change /veh PLEKHG5 (11737974_s_at) / RFU LRRC4B (11730491_at) / Fold change /veh LRRC4B (11730491_at) / RFU GIMAP4 (11747438_a_at) / Fold change /veh GIMAP4 (11747438_a_at) / RFU KRT8 (11758183_x_at) / Fold change /veh KRT8 (11758183_x_at) / RFU CNN1 (11734310_a_at) / Fold change /veh CNN1 (11734310_a_at) / RFU VPS37D (11726825_at) / Fold change /veh VPS37D (11726825_at) / RFU C10orf10 (11716522_x_at) / Fold change /veh C10orf10 (11716522_x_at) / RFU KIR2DL2 /// KIR2DL4 /// KIR2DL5A /// KIR2DL5B /// KIR2DS1 /// KIR2DS2 /// KIR2DS3 /// KIR2DS4 /// KIR3DL3 /// KIR3DL3 /// KIR3DS1 (11738374_at) / Fold change /veh KIR2DL2 /// KIR2DL4 /// KIR2DL5A /// KIR2DL5B /// KIR2DS1 /// KIR2DS2 /// KIR2DS3 /// KIR2DS4 /// KIR3DL3 /// KIR3DL3 /// KIR3DS1 (11738374_at) / RFU C1QL1 (11718748_at) / Fold change /veh C1QL1 (11718748_at) / RFU TMPRSS4 (11747572_a_at) / Fold change /veh TMPRSS4 (11747572_a_at) / RFU HAMP (11756126_x_at) / Fold change /veh HAMP (11756126_x_at) / RFU RNFT2 (11725882_a_at) / Fold change /veh RNFT2 (11725882_a_at) / RFU NR4A2 (11747474_a_at) / Fold change /veh NR4A2 (11747474_a_at) / RFU ABCC12 (11746883_a_at) / Fold change /veh ABCC12 (11746883_a_at) / RFU TMEM136 (11760407_x_at) / Fold change /veh TMEM136 (11760407_x_at) / RFU CLDN22 /// WWC2 (11732394_at) / Fold change /veh CLDN22 /// WWC2 (11732394_at) / RFU HLA-DPB1 (11760878_x_at) / Fold change /veh HLA-DPB1 (11760878_x_at) / RFU SPINT1 (11716480_a_at) / Fold change /veh SPINT1 (11716480_a_at) / RFU GAP43 (11754022_s_at) / Fold change /veh GAP43 (11754022_s_at) / RFU A4GNT (11735810_at) / Fold change /veh A4GNT (11735810_at) / RFU PRB3 (11715151_x_at) / Fold change /veh PRB3 (11715151_x_at) / RFU TUBB4B (11761932_at) / Fold change /veh TUBB4B (11761932_at) / RFU CAPN14 (11732068_a_at) / Fold change /veh CAPN14 (11732068_a_at) / RFU TMCC2 (11721928_a_at) / Fold change /veh TMCC2 (11721928_a_at) / RFU IRGQ (11745062_a_at) / Fold change /veh IRGQ (11745062_a_at) / RFU FAM174B (11720279_a_at) / Fold change /veh FAM174B (11720279_a_at) / RFU TMPRSS4 (11748680_a_at) / Fold change /veh TMPRSS4 (11748680_a_at) / RFU FAM212B (11763350_a_at) / Fold change /veh FAM212B (11763350_a_at) / RFU PLEKHG5 (11743358_a_at) / Fold change /veh PLEKHG5 (11743358_a_at) / RFU ZSCAN30 (11745921_a_at) / Fold change /veh ZSCAN30 (11745921_a_at) / RFU CMKLR1 (11741424_a_at) / Fold change /veh CMKLR1 (11741424_a_at) / RFU LOC101060620 /// MAPK8IP1 (11723275_at) / Fold change /veh LOC101060620 /// MAPK8IP1 (11723275_at) / RFU SPTSSB (11747773_x_at) / Fold change /veh SPTSSB (11747773_x_at) / RFU PRSS12 (11739890_at) / Fold change /veh PRSS12 (11739890_at) / RFU BIN1 (11741810_x_at) / Fold change /veh BIN1 (11741810_x_at) / RFU WNT11 (11732464_a_at) / Fold change /veh WNT11 (11732464_a_at) / RFU C10orf10 (11716521_a_at) / Fold change /veh C10orf10 (11716521_a_at) / RFU C5orf56 (11738089_at) / Fold change /veh C5orf56 (11738089_at) / RFU CYB561 (11721691_x_at) / Fold change /veh CYB561 (11721691_x_at) / RFU ANKRD19P (11752326_a_at) / Fold change /veh ANKRD19P (11752326_a_at) / RFU OR2T12 /// OR2T33 /// OR2T8 (11738714_s_at) / Fold change /veh OR2T12 /// OR2T33 /// OR2T8 (11738714_s_at) / RFU VCAN (11748164_a_at) / Fold change /veh VCAN (11748164_a_at) / RFU JSRP1 (11732532_at) / Fold change /veh JSRP1 (11732532_at) / RFU KRTAP10-11 (11738290_x_at) / Fold change /veh KRTAP10-11 (11738290_x_at) / RFU MYO3A (11730013_a_at) / Fold change /veh MYO3A (11730013_a_at) / RFU EBF3 (11725865_a_at) / Fold change /veh EBF3 (11725865_a_at) / RFU CAMK2N1 (11719241_x_at) / Fold change /veh CAMK2N1 (11719241_x_at) / RFU C5orf56 (11738088_a_at) / Fold change /veh C5orf56 (11738088_a_at) / RFU OLFML3 (11715873_a_at) / Fold change /veh OLFML3 (11715873_a_at) / RFU LOC100653217 /// NTM (11731650_a_at) / Fold change /veh LOC100653217 /// NTM (11731650_a_at) / RFU MAPK11 (11762145_a_at) / Fold change /veh MAPK11 (11762145_a_at) / RFU FIZ1 (11724087_x_at) / Fold change /veh FIZ1 (11724087_x_at) / RFU OASL (11726364_x_at) / Fold change /veh OASL (11726364_x_at) / RFU SOX15 (11748057_x_at) / Fold change /veh SOX15 (11748057_x_at) / RFU CD79A (11719716_a_at) / Fold change /veh CD79A (11719716_a_at) / RFU HIST1H1D (11736915_at) / Fold change /veh HIST1H1D (11736915_at) / RFU CASKIN2 (11723855_a_at) / Fold change /veh CASKIN2 (11723855_a_at) / RFU LOC730098 (11760151_x_at) / Fold change /veh LOC730098 (11760151_x_at) / RFU OR4N2 (11742367_at) / Fold change /veh OR4N2 (11742367_at) / RFU PRRT2 (11749266_a_at) / Fold change /veh PRRT2 (11749266_a_at) / RFU SNX32 (11753110_a_at) / Fold change /veh SNX32 (11753110_a_at) / RFU CDHR5 (11726645_a_at) / Fold change /veh CDHR5 (11726645_a_at) / RFU RCAN1 (11760418_a_at) / Fold change /veh RCAN1 (11760418_a_at) / RFU FAM167A (11723789_a_at) / Fold change /veh FAM167A (11723789_a_at) / RFU FAM26E (11764081_at) / Fold change /veh FAM26E (11764081_at) / RFU ISYNA1 (11749810_s_at) / Fold change /veh ISYNA1 (11749810_s_at) / RFU ACY1 (11761880_at) / Fold change /veh ACY1 (11761880_at) / RFU 11764098_at / Fold change /veh 11764098_at / RFU SAMD14 (11745864_x_at) / Fold change /veh SAMD14 (11745864_x_at) / RFU NPB (11741838_a_at) / Fold change /veh NPB (11741838_a_at) / RFU TMPRSS6 (11731388_a_at) / Fold change /veh TMPRSS6 (11731388_a_at) / RFU KRTAP10-2 (11738614_at) / Fold change /veh KRTAP10-2 (11738614_at) / RFU ARHGAP8 /// PRR5-ARHGAP8 (11727945_x_at) / Fold change /veh ARHGAP8 /// PRR5-ARHGAP8 (11727945_x_at) / RFU KRTAP5-7 /// NADSYN1 (11734609_at) / Fold change /veh KRTAP5-7 /// NADSYN1 (11734609_at) / RFU RASL12 (11751679_a_at) / Fold change /veh RASL12 (11751679_a_at) / RFU CDKN2B (11736163_a_at) / Fold change /veh CDKN2B (11736163_a_at) / RFU PRF1 (11729649_at) / Fold change /veh PRF1 (11729649_at) / RFU, ZNF638 /// ZNF638-IT1 / Fold change vs veh, ZNF638 /// ZNF638-IT1 / RFU, PANK3 / Fold change vs veh, PANK3 / RFU, SH3YL1 / Fold change vs veh, SH3YL1 / RFU, ZEB2 / Fold change vs veh, ZEB2 / RFU, NRIP1 / Fold change vs veh, NRIP1 / RFU, PTTG1IP / Fold change vs veh, PTTG1IP / RFU, CAPN2 / Fold change vs veh, CAPN2 / RFU, MED14 / Fold change vs veh, MED14 / RFU, SNORA58 / Fold change vs veh, SNORA58 / RFU, C1orf63 / Fold change vs veh, C1orf63 / RFU, LRRFIP1 / Fold change vs veh, LRRFIP1 / RFU, NDUFAF7 / Fold change vs veh, NDUFAF7 / RFU, SLC12A2 / Fold change vs veh, SLC12A2 / RFU, IBTK / Fold change vs veh, IBTK / RFU, ESF1 / Fold change vs veh, ESF1 / Fold change vs veh, TMEM50B / RFU, TAOK1 / Fold change vs veh, TAOK1 / RFU, ACBD3 / Fold change vs veh, ACBD3 / RFU, TMA16 / Fold change vs veh, TMA16 / RFU, RWDD3 / Fold change vs veh, RWDD3 / RFU, BCAT1 / Fold change vs veh, BCAT1 / RFU, EDEM3 / Fold change vs veh, EDEM3 / RFU, TMEM33 / Fold change vs veh, TMEM33 / RFU, WDR75 / Fold change vs veh, WDR75 / RFU, AHCTF1 / Fold change vs veh, AHCTF1 / RFU, TFRC / Fold change vs veh, TFRC / RFU, ZDHHC17 / Fold change vs veh, ZDHHC17 / RFU, NOM1 / Fold change vs veh, NOM1 / RFU, ARL8B / Fold change vs veh, ARL8B / RFU, ZBTB11 / Fold change vs veh, ZBTB11 / RFU, TAMM41 / Fold change vs veh, TAMM41 / RFU, KIAA1704 /// LOC100996395 / Fold change vs veh, KIAA1704 /// LOC100996395 / RFU, ING1 / Fold change vs veh, ING1 / RFU, TRMT61B / Fold change vs veh, TRMT61B / RFU, FUBP3 / Fold change vs veh, FUBP3 / RFU, TP53 / Fold change vs veh, TP53 / RFU, TNKS2 / Fold change vs veh, TNKS2 / RFU, ZFP14 / Fold change vs veh, ZFP14 / RFU, ACTR2 / Fold change vs veh, ACTR2 / RFU, PPP3R1 / Fold change vs veh, PPP3R1 / RFU, PIK3R1 / Fold change vs veh, PIK3R1 / RFU, HNRNPA1 / Fold change vs veh, HNRNPA1 / RFU, RNF170 / Fold change vs veh, RNF170 / RFU, ZNF28 / Fold change vs veh, ZNF28 / RFU, RNGTT / Fold change vs veh, RNGTT / RFU, OGT / Fold change vs veh, OGT / RFU, BRD1 / Fold change vs veh, BRD1 / RFU, MARS / Fold change vs veh, MARS / RFU, ZNF655 / Fold change vs veh, ZNF655 / RFU, FAHD1 / Fold change vs veh, FAHD1 / RFU, BDP1 / Fold change vs veh, BDP1 / RFU, LRRCC1 / Fold change vs veh, LRRCC1 / RFU, ARID1A / Fold change vs veh, ARID1A / RFU, ZNF146 / Fold change vs veh, ZNF146 / RFU, ZNF330 / Fold change vs veh, ZNF330 / RFU, GPN3 / Fold change vs veh, GPN3 / RFU, C9orf123 / Fold change vs veh, C9orf123 / RFU, N4BP2L2 / Fold change vs veh, N4BP2L2 / RFU, ARFIP1 / Fold change vs veh, ARFIP1 / RFU, FAM179B / Fold change vs veh, FAM179B / RFU, BCL10 / Fold change vs veh, BCL10 / RFU, UHRF1BP1L / Fold change vs veh, UHRF1BP1L / RFU, BET1 / Fold change vs veh, BET1 / RFU, CNOT2 / Fold change vs veh, CNOT2 / RFU, ZNF268 / Fold change vs veh, ZNF268 / Fold change vs veh, ZNF507 / RFU, DGCR2 / Fold change vs veh, DGCR2 / RFU, WDSUB1 / Fold change vs veh, WDSUB1 / Fold change vs veh, HSP90B1 /// MIR3652 / RFU, ADSS / Fold change vs veh, ADSS / RFU, GK / Fold change vs veh, GK / RFU, ZNF148 / Fold change vs veh, ZNF148 / RFU, TAF9 / Fold change vs veh, TAF9 / RFU, SLC1A5 / Fold change vs veh, SLC1A5 / RFU, SLMO2 / Fold change vs veh, SLMO2 / RFU, ABCC4 / Fold change vs veh, ABCC4 / RFU, LOC101060439 /// RAP1B / Fold change vs veh, LOC101060439 /// RAP1B / RFU, RFX7 / Fold change vs veh, RFX7 / RFU, GTPBP10 / Fold change vs veh, GTPBP10 / RFU, CNEP1R1 / Fold change vs veh, CNEP1R1 / RFU, BIVM-ERCC5 /// ERCC5 / Fold change vs veh, BIVM-ERCC5 /// ERCC5 / RFU, ILF3 / Fold change vs veh, ILF3 / RFU 11762660_at / Fold change /veh 11762660_at / RFU VCAN (11757783_s_at) / Fold change /veh VCAN (11757783_s_at) / RFU DDX43 (11728927_at) / Fold change /veh DDX43 (11728927_at) / RFU KRT8 (11758188_x_at) / Fold change /veh KRT8 (11758188_x_at) / RFU NKD1 (11759106_at) / Fold change /veh NKD1 (11759106_at) / RFU SRD5A1 (11742802_a_at) / Fold change /veh SRD5A1 (11742802_a_at) / RFU TPSAB1 /// TPSB2 (11721975_s_at) / Fold change /veh TPSAB1 /// TPSB2 (11721975_s_at) / RFU GSTM3 (11746129_a_at) / Fold change /veh GSTM3 (11746129_a_at) / RFU IL23R (11737362_x_at) / Fold change /veh IL23R (11737362_x_at) / RFU TMEM51 (11727254_a_at) / Fold change /veh TMEM51 (11727254_a_at) / RFU PIWIL2 (11732686_x_at) / Fold change /veh PIWIL2 (11732686_x_at) / RFU ORM1 (11744905_x_at) / Fold change /veh ORM1 (11744905_x_at) / RFU CCDC152 (11743942_at) / Fold change /veh CCDC152 (11743942_at) / RFU ECM1 (11717891_a_at) / Fold change /veh ECM1 (11717891_a_at) / RFU IL23R (11748794_a_at) / Fold change /veh IL23R (11748794_a_at) / RFU TNFAIP8L3 (11732012_x_at) / Fold change /veh TNFAIP8L3 (11732012_x_at) / RFU MBOAT4 (11741988_at) / Fold change /veh MBOAT4 (11741988_at) / RFU 11764193_at / Fold change /veh 11764193_at / RFU TMEM53 (11763286_at) / Fold change /veh TMEM53 (11763286_at) / RFU MAGEB2 (11727129_at) / Fold change /veh MAGEB2 (11727129_at) / RFU TMEM200A (11744735_a_at) / Fold change /veh TMEM200A (11744735_a_at) / RFU CCDC152 (11751479_a_at) / Fold change /veh CCDC152 (11751479_a_at) / RFU FAM211A (11726209_a_at) / Fold change /veh FAM211A (11726209_a_at) / RFU RGS16 (11746705_a_at) / Fold change /veh RGS16 (11746705_a_at) / RFU VCAN (11755009_s_at) / Fold change /veh VCAN (11755009_s_at) / RFU RHOB (11743442_s_at) / Fold change /veh RHOB (11743442_s_at) / RFU RGS16 (11720943_a_at) / Fold change /veh RGS16 (11720943_a_at) / RFU RGS16 (11720944_at) / Fold change /veh RGS16 (11720944_at) / RFU, VPS4B / Fold change vs veh, VPS4B / RFU, CREB1 / Fold change vs veh, CREB1 / RFU, DNAJC13 / Fold change vs veh, DNAJC13 / RFU, GNAQ / Fold change vs veh, GNAQ / RFU, CDK5R1 / Fold change vs veh, CDK5R1 / RFU, ZRANB3 / Fold change vs veh, ZRANB3 / RFU, CUL4A / Fold change vs veh, CUL4A / RFU, CCNY / Fold change vs veh, CCNY / RFU, UFL1 / Fold change vs veh, UFL1 / RFU, COG3 / Fold change vs veh, COG3 / RFU, DIAPH2 / Fold change vs veh, DIAPH2 / RFU, SKA2 / Fold change vs veh, SKA2 / RFU, AFF3 / Fold change vs veh, AFF3 / RFU, LMF1 / Fold change vs veh, LMF1 / RFU, IPO11 / Fold change vs veh, IPO11 / RFU, DFFB / Fold change vs veh, DFFB / RFU, FOXP1 / Fold change vs veh, FOXP1 / RFU, CARD8 / Fold change vs veh, CARD8 / RFU, STRN3 / Fold change vs veh, STRN3 / RFU, ADK / Fold change vs veh, ADK / RFU, RASSF2 / Fold change vs veh, RASSF2 / RFU, WIPF1 / Fold change vs veh, WIPF1 / RFU, LARP1B / Fold change vs veh, LARP1B / RFU, RASA1 / Fold change vs veh, RASA1 / RFU, RB1 / Fold change vs veh, RB1 / RFU, PPFIA1 / Fold change vs veh, PPFIA1 / RFU, MAT2A / Fold change vs veh, MAT2A / RFU, CCT5 / Fold change vs veh, CCT5 / RFU, WDR92 / Fold change vs veh, WDR92 / RFU, CUX1 / Fold change vs veh, CUX1 / RFU, TTC7A / Fold change vs veh, TTC7A / RFU, TMEM135 / Fold change vs veh, TMEM135 / RFU, DEPTOR / Fold change vs veh, DEPTOR / RFU, CPM / Fold change vs veh, CPM / RFU, DNAJB6 / Fold change vs veh, DNAJB6 / RFU, CACNA2D3 / Fold change vs veh, CACNA2D3 / RFU, DTX4 / Fold change vs veh, DTX4 / RFU, TFCP2 / Fold change vs veh, TFCP2 / RFU, GMCL1 /// GMCL1P1 / Fold change vs veh, GMCL1 /// GMCL1P1 / RFU, AEBP2 / Fold change vs veh, AEBP2 / RFU, SNHG1 /// SNORD22 /// SNORD25 /// SNORD26 /// SNORD27 /// SNORD28 /// SNORD29 /// SNORD31 / Fold change vs veh, SNHG1 /// SNORD22 /// SNORD25 /// SNORD26 /// SNORD27 /// SNORD28 /// SNORD29 /// SNORD31 / Fold change (Aza/veh), C12orf56 (ProbeSet 11735607_a_at) / Fold change (ACY-1035/veh), C12orf56 (ProbeSet 11735607_a_at) / Fold change (Aza/veh), FGFR1OP (ProbeSet 11751329_s_at) / Fold change (ACY-1035/veh), FGFR1OP (ProbeSet 11751329_s_at) / Fold change (Aza/veh), VPS36 (ProbeSet 11739960_a_at) / Fold change (ACY-1035/veh), VPS36 (ProbeSet 11739960_a_at) / RFU SYPL1 (11715823_x_at) / Fold change /veh SYPL1 (11715823_x_at) / RFU IGFBP7 (11715501_s_at) / Fold change /veh IGFBP7 (11715501_s_at) / RFU REEP3 (11722064_at) / Fold change /veh REEP3 (11722064_at) / RFU IGLL1 (11728026_x_at) / Fold change /veh IGLL1 (11728026_x_at): dose or concentration left out as unconfirmed
Conditions: ProbeSet 11745260_x_at; LIST B

## Nc1ccc(-c2cccs2)cc1NC(=O)c1ccc2c(c1)cc(C1CC1)n2CCN1CCOCC1 [ACY-1035]
  RFU, SLC12A2: 27.90 RFU
